Results taken from ChEMBL document CHEMBL2390876, “Synthesis and evaluation of 4,5-dihydro-5-methylisoxazolin-5-carboxamide derivatives as VLA-4 antagonists” (Bioorg Med Chem Lett, 2013).

Assays:
in vitro [1] = settings: rat, liver microsomes
in vitro [2] = settings: mouse, liver microsomes
in vitro [3] = settings: human, liver microsomes

CC(C1=NOC(C)(C(=O)N[C@@H](Cc2ccc(NC(=O)c3c(Cl)cccc3Cl)cc2)C(=O)O)C1)c1ccccc1 (stereo partly drawn)
remaining at 0.5 h (in vitro [1]): 84.5% | remaining at 0.5 h (in vitro [2]): 99% | remaining at 0.5 h (in vitro [3]): 95%
